From ChEMBL document CHEMBL1134487, “Design, synthesis, and biological evaluation of analogues of the antitumor agent, 2-(4-[(7-chloro-2-quinoxalinyl)oxy]phenoxy)propionic acid (XK469)” (2001)

Assays:
Mus musculus [1] = experiment: Cytotoxicity against sc transplanted Panc-02 tumors of mouse origin, activity expressed as %body wt. loss at the dose of 600 mg/kg, iv; assay type: functional
Mus musculus [2] = experiment: Cytotoxicity against sc transplanted L1210 tumors of mouse origin, activity expressed as T/C(%) at the dose of 332 mg/kg, iv; assay type: functional
Mus musculus [3] = experiment: Cytotoxicity against iv transplanted L1210 tumors of mouse origin, activity expressed as cures at the dose of 300 mg/kg, iv; 0/5 cures; assay type: functional
Mus musculus [4] = experiment: Cytotoxicity against iv transplanted AML1498 tumors of mouse origin, activity expressed as %ILS at the dose of 165 mg/kg, iv; assay type: functional
Mus musculus [5] = experiment: Cytotoxicity against sc transplanted Mam-17/0 tumors of mouse origin, activity expressed as T/C(%) at the dose of 620 mg/kg, iv; assay type: functional
Mus musculus [6] = experiment: Cytotoxicity against sc transplanted Panc-02 tumors of mouse origin, activity expressed as T/C(%) at the dose of 600 mg/kg, iv; assay type: functional
Mus musculus [7] = experiment: In vivo activity tested against C3H mice bearing mammary adenocarcinoma -17/ADR tumor measured as % treated/control calculated at 620 mg/kg (po); assay type: functional
Mus musculus [8] = experiment: In vivo activity tested against C3H mice bearing panc-03 murine tumor measured as body weight loss at 328 mg/kg (po); assay type: functional
Mus musculus [9] = experiment: Cytotoxicity against sc transplanted Squam-lung-LC12 tumors of mouse origin, activity expressed as log kill at the dose of 400 mg/kg, iv; All cures; assay type: functional, organism-based; parameters: dose 400 mg/kg
Mus musculus [10] = experiment: In vivo activity tested against C3H mice bearing panc-03 murine tumor measured as% treated/control calculated at 328 mg/kg (po); assay type: functional
Mus musculus [11] = experiment: Cytotoxicity against sc transplanted Squam-lung-LC12 tumors of mouse origin, activity expressed as cures at the dose of 400 mg/kg, iv; 5/5 cures; assay type: functional
Mus musculus [12] = experiment: Cytotoxicity against sc transplanted Mam-17/0 tumors of mouse origin, activity expressed as cures at the dose of 620 mg/kg, iv;p 0/5 cures; assay type: functional
Mus musculus [13] = experiment: Cytotoxicity against sc transplanted Panc-02 tumors of mouse origin, activity expressed as log10 Kill at the dose of 600 mg/kg, iv; assay type: functional, organism-based; parameters: dose 600 mg/kg
Mus musculus [14] = experiment: In vivo activity tested against C3H mice bearing mammary adenocarcinoma -17/ADR tumor measured as body weight loss at 620 mg/kg (po); assay type: functional
Mus musculus [15] = experiment: Cytotoxicity against sc transplanted DMS273 sm cell tumors of mouse and human origin, activity expressed as cures at the dose of 175 mg/kg, iv; 0/6 cures; assay type: functional
Mus musculus [16] = experiment: Cytotoxicity against iv transplanted AML1498 tumors of mouse origin, activity expressed as cures at the dose of 165 mg/kg, iv; 0/5 cures; assay type: functional
Mus musculus [17] = experiment: Cytotoxicity against sc transplanted colon-26 tumors of mouse origin, activity expressed as log10 Kill at the dose of 300 mg/kg, iv; assay type: functional, organism-based; parameters: dose 300 mg/kg
Mus musculus [18] = experiment: Cytotoxicity against sc transplanted Mam-16/C/Taxol tumors of mouse origin, activity expressed as %log kill at the dose of 480 mg/kg, iv; assay type: functional, organism-based; parameters: dose 480 mg/kg
Mus musculus [19] = experiment: Cytotoxicity against sc transplanted colon-26 tumors of mouse origin, activity expressed as cures at the dose of 300 mg/kg, iv; 0/5 cures; assay type: functional
Mus musculus [20] = experiment: Cytotoxicity against sc transplanted Mam-16/C/Taxol tumors of mouse origin, activity expressed as %T/C at the dose of 480 mg/kg, iv; assay type: functional
Mus musculus [21] = experiment: Cytotoxicity against sc transplanted Mam-17/0 tumors of mouse origin, activity expressed as %body wt. loss at the dose of 620 mg/kg, iv; assay type: functional
Mus musculus [22] = experiment: Cytotoxicity against sc transplanted Mam-16/C tumors of mouse origin, activity expressed as %T/C at the dose of 525 mg/kg, iv; assay type: functional
Mus musculus [23] = experiment: Cytotoxicity against sc transplanted Mam-16/C/Adr tumors of mouse origin, activity expressed as […] at the dose of 400 mg/kg, iv; 0/5 cures; assay type: functional
Mus musculus [24] = experiment: Cytotoxicity against sc transplanted Mam-16/C/Adr tumors of mouse origin, activity expressed as %body wt. loss at the dose of 400 mg/kg, iv; assay type: functional
Mus musculus [25] = experiment: Cytotoxicity against sc transplanted L1210 tumors of mouse origin, activity expressed as cures at the dose of 332 mg/kg, iv; 0/5 cures; assay type: functional
Mus musculus [26] = experiment: Cytotoxicity against sc transplanted colon-38 tumors of mouse origin, activity expressed as %T/C value at the dose of 546 mg/kg, iv; assay type: functional
Mus musculus [27] = experiment: Cytotoxicity against sc transplanted colon-38 tumors of mouse origin, activity expressed as cures at the dose of 546 mg/kg, iv; 3/5 cures; assay type: functional
Mus musculus [28] = experiment: Cytotoxicity against sc transplanted Mam-16/C/Adr tumors of mouse origin, activity expressed as […] at the dose of 400 mg/kg, iv; assay type: functional, organism-based; parameters: dose 400 mg/kg
Mus musculus [29] = experiment: In vivo activity tested against C3H mice bearing panc-03 murine tumor measured as activity rating at 328 mg/kg (po); assay type: functional

SMILES: CC(Oc1ccc(Oc2cnc3ccc(Cl)cc3n2)cc1)C(=O)O (centres undefined)
- Body weight loss (Mus musculus [1]): -3%
- T/C (Mus musculus [2]): 30%
- Cures (Mus musculus [3]): 0
- ILS at 165 mg/kg (Mus musculus [4]): 30%
- T/C (Mus musculus [5]): 10%
- T/C (Mus musculus [6]): 9%
- T/C (Mus musculus [7]): 2%
- Body weight loss (Mus musculus [8]): -4%
- Log kill (Mus musculus [9]): All cures
- T/C (Mus musculus [10]): 0%
- Cures (Mus musculus [11]): 5
- Cures (Mus musculus [12]): 0
- Log kill (Mus musculus [13]): 2.8
- Body weight loss (Mus musculus [14]): -4%
- Cures (Mus musculus [15]): 0
- Cures (Mus musculus [16]): 0
- Log kill (Mus musculus [17]): 1.3
- Log kill (Mus musculus [18]): 2.7
- Cures (Mus musculus [19]): 0
- T/C (Mus musculus [20]): 14%
- Body weight loss (Mus musculus [21]): -12%
- T/C (Mus musculus [22]): 0%
- Cures (Mus musculus [23]): 0
- Body weight loss (Mus musculus [24]): -9%
- Cures (Mus musculus [25]): 0
- T/C (Mus musculus [26]): 0%
- Cures (Mus musculus [27]): 3
- Log kill (Mus musculus [28]): 4.1
- Activity rating (Mus musculus [29]): >2.8
